Assay type in all cases: cell-based, human
For assay [1], the system named is IL-1α. The experiment in a line: LPS-stimulated IL-1α production in THP-1 monocytes (multiplex Luminex). Also noted: key to Inhibition of LPS-stimulated IL-1α production: “X” signifies significant inhibition at a particular concentration. The settings on record: 18 hours, THP-1 monocytes. As for the experimental part: (§1) Human THP-1 monocytes (ATCC TIB 202) were purchased from American Type Culture Collection (Manassas, Va.) and maintained in RPMI 1640 medium (Invitrogen, Carlsbad, Calif.) supplemented with 10% fetal bovine serum (“FBS”, Invitrogen, Carlsbad, Calif.), 100 U/mL of penicillin (Invitrogen, Carlsbad, Calif.), and 100 μg/mL of streptomycin (Invitrogen, Carlsbad, Calif.) at 37° C. in a humidified incubator with 5% CO2. THP-1 cells were pre-cultured in RPMI 1640 medium containing 10% dialyzed serum for 24 h. […] Each treatment was performed in triplicate.
(§2) Samples were analyzed using multiplex bead technology, which utilizes microspheres as the solid support for immunoassays and allows the analysis of all cytokines from each sample (D. A. Vignali, J. Immunol. Methods, Vol. 243, 243-255 (2000)). Sixteen cytokines were measured according to the manufacturer's instructions. Briefly, 50 μL of medium samples were incubated with antibody-coated capture beads overnight at 4° C. Washed beads were further incubated with biotin-labelled anti-human cytokine antibodies for 2 h at room temperature followed by incubation with streptavidin-phycoerythrin for 30 min. Samples were analyzed using Luminex 200™ (Luminex, Austin, Tex.) and Beadview software v1.0 (Upstate Cell Signaling Solutions, Temecula, Calif.). Standard curves of known concentrations of recombinant human cytokines were used to convert fluorescence units (median fluorescence intensity) to cytokine concentration in pg/mL. Only the linear portions of the standard curves were used to quantify cytokine concentrations, and in instances where the fluorescence reading exceeded the linear range of the standard curve, an appropriate dilution was performed to ensure that the concentration was in the linear portion of the curve.
(§3) All cytokine concentrations (pg/mL) were expressed as mean ±standard deviation. Statistical analysis comparing effects of treatment across groups was performed using a one-way ANOVA with a Dunnett's post-hoc comparison test using either vehicle control or LPS treatment as references. For all assays, p≦0.05 was predetermined as the criterion of statistical significance.

Assay [2] concerns IL-12p40. The experiment in a line: LPS-stimulated IL-12p40 production in THP-1 monocytes (multiplex Luminex). The settings on record: 18 hours. Also on record: key to Inhibition of LPS-stimulated IL-12p40 production: “X” signifies significant inhibition at a particular concentration. As for the experimental part:
as §1, §2, §3

In assay [3] the test system is IL-1ra. As to the kind of experiment: LPS-stimulated IL-1ra production in THP-1 monocytes (multiplex Luminex). Also on record: key to Inhibition of LPS-stimulated IL-1ra production: “X” signifies significant inhibition at a particular concentration. The settings on record: 18 hours, THP-1 monocytes. As for the experimental part: as §1, §2, §3
In assay [4] the test system is IP-10. The experiment in a line: LPS-stimulated IP-10 production in THP-1 monocytes (multiplex Luminex). Also noted: key to Inhibition of LPS-stimulated IP-10 production: “X” signifies significant inhibition at a particular concentration. The settings on record: 18 hours, THP-1 monocytes. As for the experimental part: as §1, §2, §3
The test system of assay [5] is IL-6. As to the kind of experiment: LPS-stimulated IL-6 production in THP-1 monocytes (multiplex Luminex). Also on record: key to Inhibition of LPS-stimulated IL-6 production: “X” signifies significant inhibition at a particular concentration. The settings on record: 18 hours, THP-1 monocytes. As for the experimental part: as §1, §2, §3
Assay [6] has as its system VEGF. As to the kind of experiment: LPS-stimulated VEGF production in THP-1 monocytes (multiplex Luminex). Also noted: key to Inhibition of LPS-stimulated VEGF production: “X” signifies significant inhibition at a particular concentration. The settings on record: 30 μg/mL compound + 10 μg/mL LPS, 18 hours, THP-1 monocytes. As for the experimental part: as §1, §2, §3
The test system of assay [7] is IL-1β. As to the kind of experiment: LPS-stimulated IL-1β production in THP-1 monocytes (multiplex Luminex). Also noted: key to Inhibition of LPS-stimulated IL-1β production: “X” signifies significant inhibition at a particular concentration. The settings on record: 18 hours, THP-1 monocytes. As for the experimental part:
as §1, §2, §3

Assay [8] concerns MIP-1α. The experiment in a line: LPS-stimulated MIP-1α production in THP-1 monocytes (multiplex Luminex). Also noted: key to Inhibition of LPS-stimulated MIP-1α production: “X” signifies significant inhibition at a particular concentration. The settings on record: 18 hours, THP-1 monocytes. As for the experimental part: as §1, §2, §3
Assay [9] has as its system IL-8. As to the kind of experiment: LPS-stimulated IL-8 production in THP-1 monocytes (multiplex Luminex). Also on record: key to Inhibition of LPS-stimulated IL-8 production: “X” signifies significant inhibition at a particular concentration. The settings on record: 18 hours, THP-1 monocytes. As for the experimental part: as §1, §2, §3
[10] abbreviates: 30 μg/mL compound + 10 μg/mL LPS.
Where [11] appears, read: 10 μg/mL compound + 10 μg/mL LPS.

This is an account of results in patent US20080306038A1, “Compositions and Methods for Modulating Inflammation Using Fluoroquinolones” (priority 2007, published 2008).

Consider `COc1c(N2C[C@@H]3CCCN[C@@H]3C2)c(F)cc2c(=O)c(C(=O)O)cn(C3CC3)c12` [Moxifloxacin, moxifloxacin, reference compound], for which the “Inhibition of LPS-stimulated IL-1α production” value in assay [1] (setting [10]) is given as “X”. For the same molecule, the “Concentration at which a significant inhibitory effect was observed for IL-1α” value in assay [1] (LPS-induced) was determined as 30 µg/mL. Moreover, the “Inhibition of LPS-stimulated IL-12p40 production” value in assay [2] (1 μg/mL compound + 10 μg/mL LPS), in assay [2] (setting [11]) and in assay [2] (setting [10]) was “X” in each case. In addition, in assay [2] (LPS-induced), the “Concentration at which a significant inhibitory effect was observed for IL-12p40” value came to 1 µg/mL. For the same molecule, the “Inhibition of LPS-stimulated IL-1ra production” value in assay [3] (setting [11]) and in assay [3] (setting [10]) was “X” in each case. The “Concentration at which a significant inhibitory effect was observed for IL-1ra” value in [3] (LPS-induced) is 10 µg/mL. The “Inhibition of LPS-stimulated IP-10 production” value in [4] (setting [10]) is “X”. The “Concentration at which a significant inhibitory effect was observed for IP-10” value in [4] (LPS-induced) was 30 µg/mL. Also, in assay [5] (setting [11]), the “Inhibition of LPS-stimulated IL-6 production” value is on record as “X”. The “Concentration at which a significant inhibitory effect was observed for IL-6” value in assay [5] (LPS-induced) was found to be 10 µg/mL. In addition, the “Inhibition of LPS-stimulated VEGF production” value in assay [6] is reported as “X”. The “Inhibition of LPS-stimulated IL-1β production” value in assay [7] (setting [10]) is “X”. Besides, the “Concentration at which a significant inhibitory effect was observed for IL-1β” value in assay [7] (LPS-induced) is 30 µg/mL. Further, in assay [8] (setting [10]), the “Inhibition of LPS-stimulated MIP-1α production” value is listed as “X”. Besides, in assay [8] (LPS-induced), the “Concentration at which a significant inhibitory effect was observed for MIP-1α” value stood at 30 µg/mL. The “Inhibition of LPS-stimulated IL-8 production” value in assay [9] (setting [10]) is on record as “X”. Also, in assay [9] (LPS-induced), the “Concentration at which a significant inhibitory effect was observed for IL-8” value worked out at 30 µg/mL.
